Source: patent US12508328B2, “Bio-activated reporters to visualize, in real time, specific gene therapy products” (Northwestern University, priority 2019, dated 2025)

Columns and labels:
[1] = Terbium(III) luminescence: determination of q; assay type: physicochemical; details: for q (H2O): pure water; for τD2O: D2O; for τH2O: H2O
Method: The q number in the absence and presence of CO32− was determined using TbIII analogues (5a′, 5b′, 5c′, and 11′). Given the similarities in chemistry amongst the lanthanides, TbIII luminescence is a convenient and established method for determining the coordination environment in corresponding GdIII chelates. The narrow […] emission at 543 nm and the relatively long lived 0.4 ms excited state lifetime for Tb(H2O)x facilitates accurate assessment of the inner-coordination sphere, differentiating between coordination of OH, OD, NH, and ND oscillators. 38 Luminescent decay curves were fit to the empirically derived Horrock's equation (Eq. 2). It was expected that the ortho position would have the lowest q in the presence of CO32−, creating a “dark” state with the lowest relaxivity.
The number of water molecules directly coordinated to the lanthanide center (q), was determined for each of the TbIII analogues 5a′-c′ (see Table 1), 10a′-d′ (Table 2), and 11′ in MilliQ water and MOPS/carbonate buffer (10 mm MOPS, 24 mm NaHCO3, pH 7.4).
The monoexponential fluorescence decay of an ≈1 mm solution of each complex was determined using a Hitachi F4500 fluorometer (Schaumburg, IL). An excitation wavelength of 308 nm and an emission wavelength of […] were used, and 25 scans were acquired and averaged for each solution. The averaged data was fit with a monoexponential decay function, and the time constant (t) for each solution was determined in triplicate. The fluorescence decay curves of the complexes were measured in both H2O and D2O, and in both buffer and deuterated buffer, obtained by lyophilizing and re-suspending the buffer in D2O three times (FIG. 17A-E). The q values were calculated using the empirically derived Horrock's equation for Tb(III) (Eq. 2): […]

[2] = Relaxivity (1.4 T) in MOPS and MOPS/CO3^2−; assay type: physicochemical; details: intermolecular series 5a-c, 37° C.
Method: While measurements of q indicate how well an agent can restrict water access to the GdIII center, the most important property for a bio-activated contrast agent is the change in relaxivity upon enzymatic cleavage (r1). To evaluate the signal change in the presence of CO32−, relaxivities of the intermolecular activated agents were measured in two different buffer conditions, the non-coordinating buffer MOPS and MOPS/CO32−.
T1 relaxation times were obtained for 5a-c (FIG. 13), and complexes 10a-d (FIG. 14), and 11 at 37° C. at 60 MHz (1.4 T) on a Bruker mq60 minispec spectrometer (Billerica, MA). Three 1 mM solutions of each complex were prepared in four different buffer conditions 1) 10 mm 3-(N-morpholino)propanesulfonic acid (MOPS), 100 mm NaCl, pH 7.4, 2) 10 mm MOPS, 24 mm NaHCO3, 100 mm NaCl, pH 7.4, 3) Dulbecco's Phosphate Buffer (DPBS) pH 7.3 Life Technologies, and 4) b-galactosidase enzyme assay buffer, 200 mm sodium phosphate, 100 mm bmercaptoethanol, 2 mm MgCl2, pH 7.3 (FIG. 15). Three sets of five serial dilutions (about 1 mm, 0.5 mm, 0.25 mm, 0.125 mm and 0.0625 mm) were prepared for each complex. T1 relaxation rates were measured using an inversion recovery pule sequence (t1_ir_mb) with a 10 ms first pulse separation, recycle delay and final pulse separation ≥5 T1. T1 relaxation rates were plotted as a function of GdIII concentrations as determined by ICP-MS, r1/r2 was obtained from linear fit of concentration vs. T1 as described in Equation (1).

β-galactosidase = molecular target: T1, β-galactosidase (Escherichia coli, UniProt P00722); assay type: biochemical; details: 25° C., TES buffer, 1 mM MgCl2, 150 mM NaCl; for Kcat: 420 nm; for Km: nitro-phenol absorbance 420 nm
T1 construct: purchased Sigma Aldrich
T1 sequence (P00722 2-1024): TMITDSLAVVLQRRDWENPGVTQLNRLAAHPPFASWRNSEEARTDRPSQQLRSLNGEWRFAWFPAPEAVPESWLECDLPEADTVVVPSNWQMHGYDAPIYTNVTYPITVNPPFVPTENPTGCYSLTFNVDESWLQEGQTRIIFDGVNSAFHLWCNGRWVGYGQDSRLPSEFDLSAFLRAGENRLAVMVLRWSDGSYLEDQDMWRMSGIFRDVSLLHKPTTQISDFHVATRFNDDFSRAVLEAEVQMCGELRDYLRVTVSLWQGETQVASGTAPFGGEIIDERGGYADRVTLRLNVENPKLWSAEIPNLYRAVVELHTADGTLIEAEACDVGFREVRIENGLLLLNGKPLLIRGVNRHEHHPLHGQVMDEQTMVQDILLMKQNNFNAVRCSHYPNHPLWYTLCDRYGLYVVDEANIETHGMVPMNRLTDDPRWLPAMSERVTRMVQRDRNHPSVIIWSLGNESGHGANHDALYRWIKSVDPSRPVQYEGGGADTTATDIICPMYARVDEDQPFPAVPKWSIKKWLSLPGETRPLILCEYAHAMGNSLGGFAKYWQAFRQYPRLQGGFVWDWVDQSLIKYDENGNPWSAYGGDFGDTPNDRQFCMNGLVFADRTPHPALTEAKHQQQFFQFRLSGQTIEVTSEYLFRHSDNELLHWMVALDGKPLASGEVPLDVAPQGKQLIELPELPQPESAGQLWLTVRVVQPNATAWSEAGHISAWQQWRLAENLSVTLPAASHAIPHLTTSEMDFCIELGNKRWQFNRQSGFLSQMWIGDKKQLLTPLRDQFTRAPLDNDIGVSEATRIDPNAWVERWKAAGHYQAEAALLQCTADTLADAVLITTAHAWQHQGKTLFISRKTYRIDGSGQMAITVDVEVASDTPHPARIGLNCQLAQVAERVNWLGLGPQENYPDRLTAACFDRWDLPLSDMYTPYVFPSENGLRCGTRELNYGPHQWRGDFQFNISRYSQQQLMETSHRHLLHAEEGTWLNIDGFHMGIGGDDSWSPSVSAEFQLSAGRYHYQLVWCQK
Method: Catalytic efficiencies for five substrates, 5a-c, ONPG, and PNPG were evaluated by UV-vis spectroscopy (Table 3). ONPG and PNPG are literature standards that were used to ensure the assay was performed adequately and to serve as benchmarks of activation kinetics in the absence of the GdIII chelate. […] Catalytic efficiency is directly related to the imaging window wherein activation to the r1, on state is competing with clearance.
Enzyme activation kinetics were determined by the method of initial rates for compounds 5a-c via the appearance of the nitrophenol byproduct of activation. The characteristic absorption was monitored at 420 nm. Concentrations of substrate used were 0, 0.05, 0.1, 0.12, 0.15, 0.3, 0.4, 0.5, 0.75, 1, and 2 mM. Each concentration was measured in triplicate and exact concentrations were measured by ICP-MS (see Table 2).

[3] = Horrock's equation for TbIII, MOPS/CO32- buffer pH 7.4
[4] = Tb(III) analogues, emission 543 nm, ambient temperature
[5] = deuterated MOPS/CO32- buffer pH 7.4
[6] = 10a′-d′, Horrock's equation, MOPS/CO3^2− buffer pH 7.4
[7] = 10a′-d′, MOPS/CO3^2− buffer pH 7.4
[8] = 10a′-d′, deuterated MOPS/CO3^2− buffer pH 7.4
[9] = Tb(III) analogues 10a′-d′, emission 543 nm

SMILES	Kcat (β-galactosidase)	Km (β-galactosidase) [µM]	q (buffer) [1, 6]	q (H2O) ([1]; 10a′-d′, Horrock's equation)	τHbuf [1, 7]	τDbuf [1, 8]	τD2O ([1]; Tb(III) analogues 10a′-d′)	τH2O [1, 9]	other results
O=C([O-])CN1CCN(CCNC(=O)OCc2ccc([N+](=O)[O-])c(O[C@@H]3O[C@H](CO)[C@H](O)[C@H](O)[C@H]3O)c2)CCN(CC(=O)[O-])CCN(CC(=O)[O-])CC1.[Tb+3] [5b′, Terbium(III)-1-(5-(2-(1-(4,7,10-triscarboxymethyl-(1,4,7,10tetraazacyclododecyl)))ethylcarbamoyloxymethyl)-2-nitrophenyl)-β-D-galactopyranose]	–	–	–	–	–	–	–	–	q (buffer) [1, 3]: 0; q (H2O) ([1]; Horrock's equation for TbIII): 0.4; τHbuf ([1]; MOPS/CO32- buffer pH 7.4): 1.4(2) ms; τD2O [1, 4]: 1.6(6) ms; τH2O [1, 4]: 1.3(0) ms; τDbuf [1, 5]: 1.5(4) ms
O=C([O-])CN1CCN(CCNC(=O)OCc2ccc(O[C@@H]3O[C@H](CO)[C@H](O)[C@H](O)[C@H]3O)c([N+](=O)[O-])c2)CCN(CC(=O)[O-])CCN(CC(=O)[O-])CC1.[Gd+3] [5c, Gadolinium(III)-1-(4-(2-(1-(4,7,10-triscarboxymethyl-(1,4,7,10tetraazacyclododecyl)))ethylcarbamoyloxymethyl)-2-nitrophenyl)-β-D-galactopyranose]	765 +/− 37.8 S−1	129	–	–	–	–	–	–	Δr1 relative to the cleaved complex 11 (percent change in relaxivity, dark to bright) [2]: negative
CCOC(=O)CNc1cc(COC(=O)NCCN2CCN(CC(=O)[O-])CCN(CC(=O)[O-])CCN(CC(=O)[O-])CC2)ccc1O[C@@H]1O[C@H](CO)[C@H](O)[C@H](O)[C@H]1O.[Tb+3] [10a′, Terbium(III)-1-(4-(2-(1-(4,7,10-triscarboxymethyl-(1,4,7,10tetraazacyclododecyl)))ethylcarbamoyloxymethyl)-2-((2-ethoxy-2-oxoethyl)amino)phenyl)-β-D-galactopyranose]	–	–	0.3	1.3	1.7(2) ms	2.1(8) ms	2.1(0) ms	1.1(4) ms	–
CCOC(=O)CCCCCCCNc1cc(COC(=O)NCCN2CCN(CC(=O)[O-])CCN(CC(=O)[O-])CCN(CC(=O)[O-])CC2)ccc1O[C@@H]1O[C@H](CO)[C@H](O)[C@H](O)[C@H]1O.[Tb+3] [10d′, Terbium(III)-1-(4-(2-(1-(4,7,10-triscarboxymethyl-(1,4,7,10tetraazacyclododecyl)))ethylcarbamoyloxymethyl)-2-((8-ethoxy-8-oxooctyl)amino)phenyl)-β-D-galactopyranose]	–	–	0.1	0.1	1.9(7) ms	2.0(2) ms	2.2(6) ms	1.9(3) ms	–
O=C([O-])CN1CCN(CCNC(=O)OCc2ccc(O[C@@H]3O[C@H](CO)[C@H](O)[C@H](O)[C@H]3O)c([N+](=O)[O-])c2)CCN(CC(=O)[O-])CCN(CC(=O)[O-])CC1.[Tb+3] [5c′, Terbium(III)-1-(4-(2-(1-(4,7,10-triscarboxymethyl-(1,4,7,10tetraazacyclododecyl)))ethylcarbamoyloxymethyl)-2-nitrophenyl)-β-D-galactopyranose]	–	–	–	–	–	–	–	–	q (buffer) [1, 3]: 0; q (H2O) ([1]; Horrock's equation for TbIII): 0.7; τHbuf ([1]; MOPS/CO32- buffer pH 7.4): 1.0(2) ms; τD2O [1, 4]: 1.1(1) ms; τH2O [1, 4]: 0.8(9) ms; τDbuf [1, 5]: 1.0(7) ms
O=C([O-])CN1CCN(CCNC(=O)OCc2cc([N+](=O)[O-])ccc2O[C@@H]2O[C@H](CO)[C@H](O)[C@H](O)[C@H]2O)CCN(CC(=O)[O-])CCN(CC(=O)[O-])CC1.[Gd+3] [5a, Gadolinium(III)-1-(2-(2-(1-(4,7,10-triscarboxymethyl-(1,4,7,10tetraazacyclododecyl)))ethylcarbamoyloxymethyl)-4-nitrophenyl)-β-D-galactopyranose]	637 +/− 21.9 S−1	272	–	–	–	–	–	–	Δr1 relative to the cleaved complex 11 (percent change in relaxivity, dark to bright) [2]: negative
CCOC(=O)CCCCCNc1cc(COC(=O)NCCN2CCN(CC(=O)[O-])CCN(CC(=O)[O-])CCN(CC(=O)[O-])CC2)ccc1O[C@@H]1O[C@H](CO)[C@H](O)[C@H](O)[C@H]1O.[Tb+3] [10c′, Terbium(III)-1-(4-(2-(1-(4,7,10-triscarboxymethyl-(1,4,7,10tetraazacyclododecyl)))ethylcarbamoyloxymethyl)-2-((6-ethoxy-6-oxohexyl)amino)phenyl)-β-D-galactopyranose]	–	–	0.1	0.1	1.9(3) ms	2.2(6) ms	2.2(9) ms	1.8(9) ms	–
CCOC(=O)CCCNc1cc(COC(=O)NCCN2CCN(CC(=O)[O-])CCN(CC(=O)[O-])CCN(CC(=O)[O-])CC2)ccc1O[C@@H]1O[C@H](CO)[C@H](O)[C@H](O)[C@H]1O.[Tb+3] [10b′, Terbium(III)-1-(4-(2-(1-(4,7,10-triscarboxymethyl-(1,4,7,10tetraazacyclododecyl)))ethylcarbamoyloxymethyl)-2-((4-ethoxy-4-oxobutyl)amino)phenyl)-β-D-galactopyranose]	–	–	0	0.5	1.8(9) ms	1.8(8) ms	2.2(6) ms	1.6(3) ms	–
O=C([O-])CN1CCN(CCNC(=O)OCc2cc([N+](=O)[O-])ccc2O[C@@H]2O[C@H](CO)[C@H](O)[C@H](O)[C@H]2O)CCN(CC(=O)[O-])CCN(CC(=O)[O-])CC1.[Tb+3] [5a′, Terbium(III)-1-(2-(2-(1-(4,7,10-triscarboxymethyl-(1,4,7,10tetraazacyclododecyl)))ethylcarbamoyloxymethyl)-4-nitrophenyl)-β-D-galactopyranose]	–	–	–	–	–	–	–	–	q (buffer) [1, 3]: 0.2; q (H2O) ([1]; Horrock's equation for TbIII): 1.1; τHbuf ([1]; MOPS/CO32- buffer pH 7.4): 1.7(6) ms; τD2O [1, 4]: 2.2(3) ms; τH2O [1, 4]: 1.2(8) ms; τDbuf [1, 5]: 2.2(0) ms
O=[N+]([O-])c1ccc(O[C@@H]2O[C@H](CO)[C@H](O)[C@H](O)[C@H]2O)cc1 [PNPG, para-nitrophyenyl-[…]-galactoside, reference compound]	276 +/− 16.9 S−1	61	–	–	–	–	–	–	–
O=[N+]([O-])c1ccccc1O[C@@H]1O[C@H](CO)[C@H](O)[C@H](O)[C@H]1O [ONPG, ortho-nitrophyenyl-[…]-galactoside, reference compound]	600 +/− 29.7 S−1	120	–	–	–	–	–	–	–
O=C([O-])CN1CCN(CCNC(=O)OCc2ccc([N+](=O)[O-])c(O[C@@H]3O[C@H](CO)[C@H](O)[C@H](O)[C@H]3O)c2)CCN(CC(=O)[O-])CCN(CC(=O)[O-])CC1.[Gd+3] [5b, Gadolinium(III)-1-(5-(2-(1-(4,7,10-triscarboxymethyl-(1,4,7,10tetraazacyclododecyl)))ethylcarbamoyloxymethyl)-2-nitrophenyl)-β-D-galactopyranose]	679 +/− 135.8 S−1	791	–	–	–	–	–	–	Δr1 relative to the cleaved complex 11 (percent change in relaxivity, dark to bright) [2]: 26%
